Results from patent US20060062747A1, “Use of sweetener acids for the microbiological stabilization of foodstuffs, cosmetic products, consumer goods and pharmaceutical productions” (Nutrinova Nutrition Specialties & Food Ingredients GmbH, priority 2002, published 2006).

Experiments:
[1] = Sensory testing of sweetener acids in foods and drinks; details: in vivo
Description: Sweetener acids are the acids of known salts of high-intensity sweeteners such as acesulfame-K (=potassium salt of acesulfamic acid), sodium cyclamate or sodium saccharin. Sweetener acids which can be used are, for example, saccharin acid, cyclamic acid, glycyrrhicic acid and acesulfamic acid and also mixtures of two or more of these acids. Inventively preferred sweetener acids are acesulfamic acid, cyclamic acid and saccharin acid, and also mixtures of two or all three sweetener acids. On account of their low pKa of 1.5 to 2.5, the sweetener acids have never previously been considered as […]. […] The acid profile is balanced.
At the same time, the sweetener acids have, on a molar basis, a sweetening power equivalent to the corresponding sweetener salt. In addition to the described acid taste and sweet taste, no significant off-taste and aftertaste occur.

[2] = pH of the test solutions and drinks
testers = test: Pairwise comparison test for identical acid taste
Description: Pairwise comparison test with the question: Which sample is the more acid: (forced choice, n=13)
Pairwise comparison test with the question: Which sample is the more acid? (forced choice, n=15)

pH ([2]; Example 1, identical acid taste solutions (Table 3)) | pH ([2]; Example 4, identical acid taste solutions (Table 9)) | pH ([2]; Example 3, identical acid taste solutions (Table 7)) | Compound | time-intensity profile of the acid taste [1] | citric acid concentration of identical acid taste (testers; Example 1, vs 203 mg/l acesulfamic acid, citric acid + 250 mg/l acesulfame-K, n=13) [mg/L] | acetic acid concentration of identical acid taste (testers; Example 4, vs 203 mg/l acesulfamic acid, acetic acid + 250 mg/l acesulfame-K, n=14) [mg/L] | citric acid concentration of identical acid taste (testers; Example 3, vs 200 mg/l saccharin acid, citric acid + 225 mg/l saccharin sodium, n=15) [mg/L]
3.07 | 3.07 |  | CC1=CC(=O)NS(=O)(=O)O1 [Acesulfamic acid] | comparable to that of malic acid | 137 | 190 | 
 |  | 3.05 | O=C1NS(=O)(=O)c2ccccc21 [Saccharin acid, o-benzosulfimide] |  |  |  | 100
